Source: PubChem BioAssay (NCI)
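Compound exposure: 48 hours, 5 concentrations, 96-well plates. Abbreviation: GI50, concentration required for 50% inhibition of growth. TGI marks complete inhibition of growth.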

Experiments:
Assay in all cases: inhibition of tumour cell growth, NCI panel, 48 h
CAKI-1 renal = test system: CAKI-1 renal
HCC-2998 colon = test system: HCC-2998 colon
HOP-92 NSCLC = test system: HOP-92 NSCLC
NCI-H460 lung = test system: NCI-H460 lung
NCI-H522 lung = test system: NCI-H522 lung
OVCAR-5 ovarian = test system: OVCAR-5 ovarian
TK-10 renal = test system: TK-10 renal
UO-31 renal = test system: UO-31 renal
SK-MEL-2 melanoma = test system: SK-MEL-2 melanoma
PC-3 prostate = test system: PC-3 prostate

| Compound | TGI (CAKI-1 renal) [µM] | TGI (HCC-2998 colon) [µM] | TGI (HOP-92 NSCLC) [µM] | TGI (NCI-H460 lung) [µM] | TGI (NCI-H522 lung) [µM] | TGI (OVCAR-5 ovarian) [µM] | TGI (TK-10 renal) [µM] | TGI (UO-31 renal) [µM] | TGI (SK-MEL-2 melanoma) [µM] | GI50 (CAKI-1 renal) [µM] | GI50 (HOP-92 NSCLC) [µM] | GI50 (NCI-H460 lung) [µM] | GI50 (NCI-H522 lung) [µM] | GI50 (OVCAR-5 ovarian) [µM] | GI50 (PC-3 prostate) [µM] | TGI (PC-3 prostate) [µM] | GI50 (SK-MEL-2 melanoma) [µM] | GI50 (TK-10 renal) [µM] | GI50 (UO-31 renal) [µM] | GI50 (HCC-2998 colon) [µM] |
| --- | --- | --- | --- | --- | --- | --- | --- | --- | --- | --- | --- | --- | --- | --- | --- | --- | --- | --- | --- | --- |
| CC1(C)C=C(N2CCN(C3=CC(C)(C)NC(C)(C)C3)CC2)CC(C)(C)N1 | > 100 | > 100 | > 100 | > 100 | > 100 | > 100 | > 100 | > 100 | – | – | – | – | – | – | – | – | – | – | – | – |
| C=C(C)C1CC=C(C)C(O)([C@@]2(O)C[C@H](C(=C)C)CC=C2C)C1 (some centres not stated) | 51.8 | 35.7 | 40.6 | 34.6 | 41.5 | 63.5 | > 100 | 55.9 | 35.9 | – | – | – | – | – | – | – | – | – | – | – |
| CC(/C=C1\CCC(CN(C)C)C1=O)c1cccc(Br)c1 (configuration not stated) | 21.1 | 35.9 | 33.5 | > 70.2 | 22 | 43.8 | 30.6 | 33.2 | 30.5 | – | – | – | – | – | – | – | – | – | – | – |
| CCOP(=O)(OCC)C(NC(c1ccccc1)c1ccccc1)c1ccsc1 (configuration not stated) | 33.2 | – | 30.8 | 53.7 | 74.5 | 32.6 | 32.2 | > 100 | > 100 | 16 | 14.3 | 18.7 | 25.2 | 16.9 | 10.9 | 23.9 | 43.4 | 16.1 | 33.1 | – |
| c1ccc(N2CCN(CCCN3CCc4c([nH]c5ccccc45)C3c3cccnc3)CC2)cc1 (configuration not stated) | > 100 | > 100 | > 100 | > 100 | > 100 | > 100 | > 100 | > 100 | > 100 | – | – | – | – | – | – | – | – | – | – | – |
| O=C(CC1(O)C(=O)Nc2c(Cl)cc(Cl)cc21)c1ccc([N+](=O)[O-])cc1 (configuration not stated) | > 100 | > 100 | 75.5 | > 100 | 46.4 | > 100 | > 100 | 35.1 | > 100 | – | – | – | – | – | – | – | – | – | – | – |
| COc1ccc2[nH]cc(Cc3c[nH]c4ccc(OC)cc34)c2c1 | 44.4 | – | – | 63.8 | 77.3 | 58 | 44 | > 100 | 43.3 | 19.9 | – | 22.7 | 25.5 | 24.8 | 19.3 | 39.4 | 17.4 | 15.9 | 27.5 | – |
| CC(O)(c1ccc(OCCC[N+](C)(C)C)cc1)C(C)(O)c1ccc(OCCC[N+](C)(C)C)cc1 (configuration not stated) | > 100 | > 100 | > 100 | > 100 | > 100 | > 100 | – | > 100 | > 100 | – | – | – | – | – | – | – | – | – | – | – |
| O=c1oc2c(O)c(O)cc3c(=O)oc4c(O)c(O)cc1c4c23 | 29.5 | > 100 | 99 | > 100 | 43.1 | > 100 | > 100 | > 100 | > 100 | – | – | – | – | > 100 | – | – | – | – | – | > 100 |
